Consider 11 compounds from patent publication US12594276B2, “Inhibitors of human immunodeficiency virus replication” (ViiV Healthcare UK (No.5) Limited, priority 2024, dated 2026).

The nature of data set [1]: Compound cytotoxicity, XTT-based colorimetric assay. Format: cell-based. The following applies: human; uninfected MT2 cells, day 4, XTT; read-out: CC50. A digest of the protocol: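 CC50 derived from XTT colorimetric signal measured on day 4 in MT2 cells that were not infected. All other steps followed the antiviral assay protocol.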
(In general: Tetrazolium dyes change colour on reduction, which living cells bring about.)

Data set [2] concerns recombinant NL4-3 virus (nef section replaced with Renilla luciferase gene) in MT-2 cells. Nature of the data set: HIV cell culture assay (antiviral activity, luciferase readout). In kind it is cell-based. As to conditions: Renilla, NL43, MT-2 cells infected for 4-5 days with recombinant NL4-3 Renilla luciferase virus. Put shortly: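 EC50 was derived by median-effect fitting of Renilla luciferase signal from MT-2 cells. These cells were infected for 4–5 days with NL4-3 reporter virus (nef partly replaced by luciferase; made in 293T cells) in the presence of serially diluted compound. Activity was quantified with a live-cell luciferase substrate.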

As a reminder, the CC50 is the concentration that lowers cell viability or growth by half. As usually defined, the EC50 is the concentration that produces a half-maximal response.

`COCCCn1nc(NS(C)(=O)=O)c2c(Cl)ccc(-n3c([C@H](Cc4cc(F)cc(F)c4)NC(=O)Cn4nc(C(F)F)c5c4C(F)(F)[C@@H]4C[C@H]54)nc4nc(C5CCC(F)(F)CC5)cc(NCCN5CCC5)c4c3=O)c21` (atropisomer, axis not shown; (P)) [Example 500, N-[(1S)-1-[(3P)-5-{[2-(azetidin-1-yl)ethyl]amino}-3-[4-chloro-3-methanesulfonamido-1-(3-methoxypropyl)-1H-indazol-7-yl]-7-(4,4-difluorocyclohexyl)-4-oxo-3H,4H-pyrido[2,3-d]pyrimidin-2-yl]-2-(3,5-difluorophenyl)ethyl]-2-[(2S,4R)-9-(difluoromethyl)-5,5-difluoro-7,8-diazatricyclo[4.3.0.0^2,^4]nona-1(6),8-dien-7-yl]acetamide]: the CC50 at 4 days in data set [1] is above 20 nM. The EC50 in data set [2] is 0.049 nM.

Regarding `Cc1cc(C2(F)CCC(F)(F)CC2)nc2nc([C@H](Cc3cc(F)cc(F)c3)NC(=O)Cn3nc(C(F)F)c4c3C(F)(F)[C@@H]3C[C@H]43)n(-c3ccc(Cl)c4c(NS(C)(=O)=O)nn(CCN5CC(C)(C)OC(C)(C)C5)c34)c(=O)c12` (atropisomer, axis not shown; (P)) [Example 501, N-[(1S)-1-[(3P)-3-{4-chloro-3-methanesulfonamido-1-[2-(2,2,6,6-tetramethylmorpholin-4-yl)ethyl]-1H-indazol-7-yl}-5-methyl-4-oxo-7-(1,4,4-trifluorocyclohexyl)-3H,4H-pyrido[2,3-d]pyrimidin-2-yl]-2-(3,5-difluorophenyl)ethyl]-2-[(2S,4R)-9-(difluoromethyl)-5,5-difluoro-7,8-diazatricyclo[4.3.0.0^2,^4]nona-1(6),8-dien-7-yl]acetamide], in data set [1], the CC50 at 4 days is above 20 nM. Moreover, in data set [2], the EC50 turned out to be 0.016 nM.

Take `Cc1cc(C2(F)CCC(F)(F)CC2)nc2nc([C@H](Cc3cc(F)cc(F)c3)NC(=O)Cn3nc(C(F)F)c4c3C(F)(F)[C@@H]3C[C@H]43)n(-c3ccc(Cl)c4c(NS(C)(=O)=O)nn(CCN5C[C@@H](C)O[C@@H](C)C5)c34)c(=O)c12` (atropisomer, axis not shown; (P)) [Example 502, N-[(1S)-1-[(3P)-3-(4-chloro-1-{2-[(2R,6S)-2,6-dimethylmorpholin-4-yl]ethyl}-3-methanesulfonamido-1H-indazol-7-yl)-5-methyl-4-oxo-7-(1,4,4-trifluorocyclohexyl)-3H,4H-pyrido[2,3-d]pyrimidin-2-yl]-2-(3,5-difluorophenyl)ethyl]-2-[(2S,4R)-9-(difluoromethyl)-5,5-difluoro-7,8-diazatricyclo[4.3.0.0^2,^4]nona-1(6),8-dien-7-yl]acetamide]: the half-maximal cytotoxic concentration (CC50) at 4 days in data set [1] was above 20 nM. Besides, the EC50 in data set [2] worked out at 0.019 nM.

Consider `Cc1cc(C2(F)CCC(F)(F)CC2)nc2nc([C@H](Cc3cc(F)cc(F)c3)NC(=O)Cn3nc(C4CC4)c4c3C[C@@H]3C[C@H]43)n(-c3ccc(Cl)c4c(NS(C)(=O)=O)nn(CCN5C[C@@H](C)O[C@@H](C)C5)c34)c(=O)c12` (atropisomer, axis not shown; (P)) [Example 503, N-[(1S)-1-[(3P)-3-(4-chloro-1-{2-[(2R,6S)-2,6-dimethylmorpholin-4-yl]ethyl}-3-methanesulfonamido-1H-indazol-7-yl)-5-methyl-4-oxo-7-(1,4,4-trifluorocyclohexyl)-3H,4H-pyrido[2,3-d]pyrimidin-2-yl]-2-(3,5-difluorophenyl)ethyl]-2-[(2S,4S)-9-cyclopropyl-7,8-diazatricyclo[4.3.0.0^2,4]nona-1(6),8-dien-7-yl]acetamide], for which the cytotoxic concentration (CC50) at 4 days in data set [1] is above 20 nM. The half-maximal effective concentration (EC50) in data set [2] was 0.008 nM.

With `Cc1cc(C2(F)CCC(F)(F)CC2)nc2nc([C@H](Cc3cc(F)cc(F)c3)NC(=O)Cn3nc(C4CC4)c4c3C[C@@H]3C[C@H]43)n(-c3ccc(Cl)c4c(NS(C)(=O)=O)nn(CCN5CC(C)(C)OC(C)(C)C5)c34)c(=O)c12` (atropisomer, axis not shown; (P)) [Example 504, N-[(1S)-1-[(3P)-3-{4-chloro-3-methanesulfonamido-1-[2-(2,2,6,6-tetramethylmorpholin-4-yl)ethyl]-1H-indazol-7-yl}-5-methyl-4-oxo-7-(1,4,4-trifluorocyclohexyl)-3H,4H-pyrido[2,3-d]pyrimidin-2-yl]-2-(3,5-difluorophenyl)ethyl]-2-[(2S,4S)-9-cyclopropyl-7,8-diazatricyclo[4.3.0.0^2,^4]nona-1(6),8-dien-7-yl]acetamide], in data set [1], the CC50 at 4 days is above 20 nM. For the same compound, the EC50 in data set [2] was determined as 0.049 nM.

For the compound `Cc1cc(C2(C)CCC(F)(F)CC2)nc2nc([C@H](Cc3cc(F)cc(F)c3)NC(=O)Cn3nc(C(F)F)c4c3C(F)(F)[C@@H]3C[C@H]43)n(-c3ccc(Cl)c4c(NS(C)(=O)=O)nn(CCN5C[C@@H](C)O[C@@H](C)C5)c34)c(=O)c12` (atropisomer, axis not shown; (P)) [Example 505, N-[(1S)-1-[(3P)-3-(4-chloro-1-{2-[(2R,6S)-2,6-dimethylmorpholin-4-yl]ethyl}-3-methanesulfonamido-1H-indazol-7-yl)-7-(4,4-difluoro-1-methylcyclohexyl)-5-methyl-4-oxo-3H,4H-pyrido[2,3-d]pyrimidin-2-yl]-2-(3,5-difluorophenyl)ethyl]-2-[(2S,4R)-9-(difluoromethyl)-5,5-difluoro-7,8-diazatricyclo[4.3.0.0^2,^4]nona-1(6),8-dien-7-yl]acetamide], the half-maximal cytotoxic concentration (CC50) at 4 days in data set [1] is above 20 nM. Further, the EC50 in data set [2] is 0.013 nM.

As to `Cc1cc(C2(C)CCC(F)(F)CC2)nc2nc([C@H](Cc3cc(F)cc(F)c3)NC(=O)Cn3nc(C4CC4)c4c3C[C@@H]3C[C@H]43)n(-c3ccc(Cl)c4c(NS(C)(=O)=O)nn(CCN5CC(C)(C)OC(C)(C)C5)c34)c(=O)c12` (atropisomer, axis not shown; (P)) [Example 506, N-[(1S)-1-[(3P)-3-{4-chloro-3-methanesulfonamido-1-[2-(2,2,6,6-tetramethylmorpholin-4-yl)ethyl]-1H-indazol-7-yl}-7-(4,4-difluoro-1-methylcyclohexyl)-5-methyl-4-oxo-3H,4H-pyrido[2,3-d]pyrimidin-2-yl]-2-(3,5-difluorophenyl)ethyl]-2-[(2S,4S)-9-cyclopropyl-7,8-diazatricyclo[4.3.0.0^2,^4]nona-1(6),8-dien-7-yl]acetamide], the CC50 at 4 days in data set [1] is above 20 nM. In data set [2], the EC50 stood at 0.027 nM.

Take `Cc1cc(C2(C)CCC(F)(F)CC2)nc2nc([C@H](Cc3cc(F)cc(F)c3)NC(=O)Cn3nc(C(F)F)c4c3C(F)(F)[C@@H]3C[C@H]43)n(-c3ccc(Cl)c4c(NS(C)(=O)=O)nn(CCN5CC(C)(C)OC(C)(C)C5)c34)c(=O)c12` (atropisomer, axis not shown; (P)) [Example 507, N-[(1S)-1-[(3P)-3-{4-chloro-3-methanesulfonamido-1-[2-(2,2,6,6-tetramethylmorpholin-4-yl)ethyl]-1H-indazol-7-yl}-7-(4,4-difluoro-1-methylcyclohexyl)-5-methyl-4-oxo-3H,4H-pyrido[2,3-d]pyrimidin-2-yl]-2-(3,5-difluorophenyl)ethyl]-2-[(2S,4R)-9-(difluoromethyl)-5,5-difluoro-7,8-diazatricyclo[4.3.0.0^2,^4]nona-1(6),8-dien-7-yl]acetamide]: the cytotoxic concentration (CC50) at 4 days in data set [1] was above 20 nM. In addition, the concentration giving a half-maximal response (EC50) in data set [2] is 0.021 nM.

For `Cc1cc(C2(C)CCC(F)(F)CC2)nc2nc([C@H](Cc3cc(F)cc(F)c3)NC(=O)Cn3nc(C4CC4)c4c3C[C@@H]3C[C@H]43)n(-c3ccc(Cl)c4c(NS(C)(=O)=O)nn(CCN5C[C@@H](C)O[C@@H](C)C5)c34)c(=O)c12` (atropisomer, axis not shown; (P)) [Example 508, N-[(1S)-1-[(3P)-3-(4-chloro-1-{2-[(2R,6S)-2,6-dimethylmorpholin-4-yl]ethyl}-3-methanesulfonamido-1H-indazol-7-yl)-7-(4,4-difluoro-1-methylcyclohexyl)-5-methyl-4-oxo-3H,4H-pyrido[2,3-d]pyrimidin-2-yl]-2-(3,5-difluorophenyl)ethyl]-2-[(2S,4S)-9-cyclopropyl-7,8-diazatricyclo[4.3.0.0^2,^4]nona-1(6),8-dien-7-yl]acetamide], in data set [1], the CC50 at 4 days is above 20 nM. The EC50 in data set [2] is 0.012 nM.

Consider `COCCCn1nc(NS(C)(=O)=O)c2c(Cl)ccc(-n3c([C@H](Cc4cc(F)cc(F)c4)NC(=O)Cn4nc(C(F)F)c5c4C(F)(F)[C@@H]4C[C@H]54)nc4nc(C5CCC(F)(F)CC5)cc(NCCN5C[C@H](F)C[C@H](F)C5)c4c3=O)c21` (atropisomer, axis not shown; (P)) [Example 509, N-[(1S)-1-[(3P)-3-[4-chloro-3-methanesulfonamido-1-(3-methoxypropyl)-1H-indazol-7-yl]-7-(4,4-difluorocyclohexyl)-5-({2-[(3R,5S)-3,5-difluoropiperidin-1-yl]ethyl}amino)-4-oxo-3H,4H-pyrido[2,3-d]pyrimidin-2-yl]-2-(3,5-difluorophenyl)ethyl]-2-[(2S,4R)-9-(difluoromethyl)-5,5-difluoro-7,8-diazatricyclo[4.3.0.0^2,^4]nona-1(6),8-dien-7-yl]acetamide], for which, in data set [1], the CC50 at 4 days is above 20 nM. In addition, the EC50 in data set [2] is 0.006 nM.

With `CS(=O)(=O)Nc1nn(CCN2C[C@H](F)C[C@H](F)C2)c2c(-n3c([C@H](Cc4cc(F)cc(F)c4)NC(=O)Cn4nc(C(F)F)c5c4C(F)(F)[C@@H]4C[C@H]54)nc4nc(C5CCC(F)(F)CC5)cc(CF)c4c3=O)ccc(Cl)c12` (atropisomer, axis not shown; (P)) [Example 512, N-[(1S)-1-[(3P)-3-(4-chloro-1-{2-[(3R,5S)-3,5-difluoropiperidin-1-yl]ethyl}-3-methanesulfonamido-1H-indazol-7-yl)-7-(4,4-difluorocyclohexyl)-5-(fluoromethyl)-4-oxo-3H,4H-pyrido[2,3-d]pyrimidin-2-yl]-2-(3,5-difluorophenyl)ethyl]-2-[(2S,4R)-9-(difluoromethyl)-5,5-difluoro-7,8-diazatricyclo[4.3.0.0^2,^4]nona-1(6),8-dien-7-yl]acetamide], in data set [1], the CC50 at 4 days was above 20 nM. The EC50 in data set [2] stood at 0.006 nM.
